{"source": "paper PMC8761715", "about": "(Clinical Pharmacokinetics, 2021)", "key": {"[1]": {"tested_on": "CYP3A", "settings": "cited from earlier work"}, "[2]": {"tested_on": "P-gp/BCRP", "settings": "cited from earlier work"}, "[3]": {"settings": "rivaroxaban with more than one combined P-gp and CYP3A4 inhibitor; atrial fibrillation patients; 95% CI 1.01–1.85, p = 0.04; cited from earlier work"}, "[4]": {"settings": "cited from earlier work"}, "[5]": {"settings": "posaconazole as tablets; general statement, ref not given; cited from earlier work"}, "[6]": {"experiment": "Pharmacokinetics of microdosed rivaroxaban", "settings": "rivaroxaban 25 µg microdose with the azole named as label, vs baseline"}, "[7]": {"tested_on": "CYP2D6", "settings": "multiple doses of isavuconazole; cited from earlier work"}, "[8]": {"settings": "cited from earlier work", "remark": "listed apart in the source"}, "[9]": {"experiment": "Pharmacokinetics of microdosed edoxaban"}, "[10]": {"settings": "cited from earlier work", "remark": "listed apart in the source"}, "[11]": {"tested_on": "CYP2J2", "settings": "cited from earlier work"}, "[12]": {"experiment": "Plasma pharmacokinetics of the azole antifungals", "assay_type": "in vivo, human", "settings": "after first 200 mg dose, fasting; LLOQ 0.1 µg/mL"}, "[13]": {"tested_on": "CYP2C19", "settings": "cited from earlier work"}, "[14]": {"tested_on": "CYP2C9", "settings": "cited from earlier work"}}}
{"smiles": "C[C@@H](c1ncncc1F)[C@](O)(Cn1cncn1)c1ccc(F)cc1F", "note": "[Voriconazole, voriconazole]", "values": [{"measurement": "CYP3A inhibitor classification", "setting": "[1]", "result": "Strong"}, {"measurement": "P-gp/BCRP inhibitor classification", "setting": "[2]", "result": "not P-gp/BCRP, inhibitor"}]}
{"smiles": "O=C(NC[C@H]1CN(c2ccc(N3CCOCC3=O)cc2)C(=O)O1)c1ccc(Cl)s1", "note": "[Rivaroxaban, rivaroxaban]", "values": [{"measurement": "Bleeding risk ratio (RR) compared with warfarin", "setting": "[3]", "result": 1.37}, {"measurement": "Rivaroxaban P-gp/BCRP-dependent active renal secretion", "setting": "[4]", "result": "approximately 30 % of a dose"}, {"measurement": "Rivaroxaban bioavailability", "setting": "[4]", "result": "80–100%"}, {"measurement": "Rivaroxaban partial clearance by non-enzymatic hydrolysis", "setting": "[4]", "result": "approximately 14%"}, {"measurement": "Rivaroxaban partial clearance mediated by CYP2J2", "setting": "[4]", "result": "approximately 14%"}, {"measurement": "Rivaroxaban partial clearance mediated by CYP3A", "setting": "[4]", "result": "approximately 18 % of a dose"}]}
{"smiles": "CC[C@@H]([C@H](C)O)n1ncn(-c2ccc(N3CCN(c4ccc(OC[C@@H]5CO[C@@](Cn6cncn6)(c6ccc(F)cc6F)C5)cc4)CC3)cc2)c1=O", "note": "[Posaconazole, posaconazole]", "values": [{"measurement": "CYP3A inhibitor classification", "setting": "[1]", "result": "Strong"}, {"measurement": "Time at which maximum plasma concentrations are reached (tmax)", "setting": "[5]", "result": "4 to 5", "unit": "h"}, {"measurement": "P-gp/BCRP inhibitor classification", "setting": "[2]", "result": "in vitro P-gp/BCRP inhibitor"}]}
{"smiles": "C[C@@H](c1nc(-c2ccc(C#N)cc2)cs1)[C@](O)(Cn1cncn1)c1cc(F)ccc1F", "note": "[Isavuconazole, isavuconazole]", "values": [{"measurement": "Effect of azole on rivaroxaban pharmacokinetics (in words)", "setting": "[6]", "result": "did not alter any pharmacokinetic parameters"}, {"measurement": "CYP3A inhibitor classification", "setting": "[1]", "result": "Weak to moderate"}, {"measurement": "Increase in dextromethorphan exposure", "setting": "[7]", "result": "< 20", "unit": "%"}, {"measurement": "P-gp/BCRP inhibitor classification", "setting": "[2]", "result": "P-gp inhibitor, but not BCRP inhibitor"}]}
{"smiles": "COc1ccc(-n2nc(C(N)=O)c3c2C(=O)N(c2ccc(N4CCCCC4=O)cc2)CC3)cc1", "note": "[Apixaban, apixaban]", "values": [{"measurement": "Contribution of CYP enzymes other than CYP3A to overall elimination of apixaban", "setting": "[8]", "result": 6, "unit": "%"}]}
{"smiles": "CN1CCc2nc(C(=O)N[C@@H]3C[C@@H](C(=O)N(C)C)CC[C@@H]3NC(=O)C(=O)Nc3ccc(Cl)cn3)sc2C1", "note": "[Edoxaban, edoxaban]", "values": [{"measurement": "Average CL/F of edoxaban higher than published values", "setting": "[9]; compared with 18 study participants of ref 24", "result": 30, "unit": "%"}, {"measurement": "Edoxaban individual CL/F, observed range", "setting": "[9]; this study, 50 µg microdose", "result": "600 to 2200", "unit": "mL/min"}, {"measurement": "Edoxaban individual CL/F, range of previous study", "setting": "[10]; 18 study participants", "result": "490 to 1460", "unit": "mL/min"}, {"measurement": "Edoxaban bioavailability", "setting": "[10]", "result": "approximately 62%"}, {"measurement": "Edoxaban dose eliminated unchanged in the urine", "setting": "[10]", "result": "approximately 24%"}, {"measurement": "Edoxaban dose excreted unchanged in the faeces", "setting": "[10]", "result": "About 50%"}, {"measurement": "Part of edoxaban elimination by CYP-mediated metabolism", "setting": "[10]", "result": "< 4", "unit": "%"}]}
{"smiles": "CC(=O)N1CCN(c2ccc(OCC3COC(Cn4ccnc4)(c4ccc(Cl)cc4Cl)O3)cc2)CC1", "note": "(stereo not drawn) [Ketoconazole, ketoconazole]", "values": [{"measurement": "CYP3A inhibitor classification", "setting": "[1]", "result": "Strong"}, {"measurement": "Apixaban Cmax increase with ketoconazole, published", "setting": "[8]; similar perpetrator dose, longer pretreatment", "result": 1.6, "unit": "fold"}, {"measurement": "Rivaroxaban AUC increase with ketoconazole, published", "setting": "[4]", "result": 2.6, "unit": "fold"}, {"measurement": "Edoxaban AUC increase with ketoconazole, published", "setting": "[10]", "result": 1.9, "unit": "fold"}, {"measurement": "CYP2J2 inhibitor classification", "setting": "[11]", "result": "potent inhibitor"}]}
{"smiles": "CCC(C)n1ncn(-c2ccc(N3CCN(c4ccc(OCC5COC(Cn6cncn6)(c6ccc(Cl)cc6Cl)O5)cc4)CC3)cc2)c1=O", "note": "(stereo not drawn) [Itraconazole, itraconazole]", "values": [{"measurement": "Azole plasma concentrations (in words)", "setting": "[12]", "result": "below the LLOQ"}, {"measurement": "CYP3A inhibitor classification", "setting": "[1]", "result": "Strong"}, {"measurement": "P-gp/BCRP inhibitor classification", "setting": "[2]", "result": "P-gp/BCRP inhibitor"}]}
{"smiles": "OC(Cn1cncn1)(Cn1cncn1)c1ccc(F)cc1F", "note": "[Fluconazole, fluconazole]", "values": [{"measurement": "CYP2C19 inhibitor classification", "setting": "[13]", "result": "strong"}, {"measurement": "CYP2C9 inhibitor classification", "setting": "[14]", "result": "moderate"}, {"measurement": "CYP3A inhibitor classification", "setting": "[1]", "result": "Mainly moderate"}, {"measurement": "Rivaroxaban CL/F reduction with fluconazole, published", "setting": "[4]; therapeutic dose of rivaroxaban, 4 days pre-exposure", "result": 29, "unit": "%"}, {"measurement": "P-gp/BCRP inhibitor classification", "setting": "[2]", "result": "not P-gp/BCRP, inhibitor"}]}
